{
  "source": "paper PMC10687288",
  "about": "“Chalcones: The flavonoid derivatives synthesis, characterization, their antioxidant and in vitro/in vivo antidiabetic potentials” (Heliyon, 2023)",
  "biological_target": "α-glucosidase",
  "experiment": "p-nitrophenyl-α-D-glucopyranoside hydrolysis assay, absorbance […] nm",
  "type": "biochemical",
  "data": [
    {"smiles": "O=C(/C=C/c1cccc(Cl)c1)c1ccc(Br)cc1", "note": "[JA2, (E)-1-(4-bromophenyl)-3-(3-chlorophenyl) prop-2-ene-1one]", "values": [
      {"measurement": "Glucosidase IC50", "result": "97.24 ± 1.48", "unit": "µg/mL"}
    ]},
    {"smiles": "O=C(/C=C/c1ccc(Cl)cc1)c1ccc(Br)cc1", "note": "[JA3, (E)-1-(4-bromophenyl)-3-(4-chlorophenyl) prop-2-ene-1one]", "values": [
      {"measurement": "Glucosidase IC50", "result": "63.04 ± 1.17", "unit": "µg/mL"}
    ]},
    {"smiles": "O=C(/C=C/c1ccccc1Cl)c1ccc(Br)cc1", "note": "[JA1, (E)-1-(4-bromophenyl)-3-(2-chlorophenyl) prop-2-ene-1one]", "values": [
      {"measurement": "Glucosidase IC50", "result": "85.11 ± 1.29", "unit": "µg/mL"}
    ]}
  ]
}
